Patent publication US5874442A, “Tricyclic amides useful for inhibition of G-protein function and for treatment of proliferative disease” (Schering-Plough Corporation, priority 1996, dated 1999)

Columns and labels:
[1] = tested on: DLD-1 (human colon carcinoma cells); assay: In vivo anti-tumor studies, subcutaneous DLD-1 tumors in athymic nu/nu mice; design: species or system athymic nu/nu female mice; conditions: Mus musculus, DLD-1, po, […], read-out: Average % Tumor Inhibition
Protocol: Tumor bearing animals are selected and randomized when the tumors are established. Animals are treated with vehicle (β-cyclodextrin for i.p. or corn oil for p.o.) only or with a compound of the present invention in vehicle four times a day (QID) for 7 days per week for 4 weeks. The percent inhibition of tumor growth relative to vehicle controls is determined by tumor measurements.

[2] = tested on: BT474 (breast); assay: Soft agar assay; type: cell-based; conditions: Homo sapiens, BT-474, read-out: IC50, inhibition of human tumor cell growth, soft agar
Protocol: (§1) Anchorage-independent growth is a characteristic of tumorigenic cell lines. Human tumor cells are suspended in growth medium containing 0.3% agarose and an indicated concentration of a farnesyl transferase inhibitor. The solution is overlayed onto growth medium solidified with 0.6% agarose containing the same concentration of farnesyl transferase inhibitor as the top layer. After the top layer is solidified, plates are incubated for 10-16 days at 37° C. under 5% CO2 to allow colony outgrowth. After incubation, the colonies are stained by overlaying the agar with a solution of MTT (3-[4,5-dimethylthiazol-2-yl]-2,5-diphenyltetrazolium bromide, Thiazolyl blue) (1 mg/mL in PBS). Colonies are counted and the IC50's determined.

[3] = tested on: HTB 173 (NCI H146); assay: Soft agar assay; type: cell-based; conditions: Homo sapiens; HTB 173 (NCI H146) (SCLC) ras mut. not detected; read-out: IC50, inhibition of human tumor cell growth, soft agar
Protocol: as §1

[4] = tested on: MCF-7; assay: Soft agar assay; type: cell-based; conditions: Homo sapiens, MCF7; MCF-7 (breast) ras mut. not detected; read-out: IC50, inhibition of human tumor cell growth, soft agar
Protocol: as §1

[5] = tested on: PC3 (prostate); assay: Soft agar assay; type: cell-based; conditions: Homo sapiens, read-out: IC50, inhibition of human tumor cell growth, soft agar
Protocol: as §1

[6] = tested on: Du4475; assay: Soft agar assay; type: cell-based; conditions: Homo sapiens, DU-4475; Du4475 (breast) ras mut. not detected; read-out: IC50, inhibition of human tumor cell growth, soft agar
Protocol: as §1

[7] = tested on: HTB 119 (NCI H69); assay: Soft agar assay; type: cell-based; conditions: Homo sapiens; HTB 119 (NCI H69) (SCLC); read-out: IC50, inhibition of human tumor cell growth, soft agar
Protocol: as §1

[8] = tested on: HBL100; assay: Soft agar assay; type: cell-based; conditions: Homo sapiens, HBL-100; HBL100 (breast) ras mut. not detected; read-out: IC50, inhibition of human tumor cell growth, soft agar
Protocol: as §1

[9] = tested on: AsPc-1; assay: Soft agar assay; type: cell-based; conditions: Homo sapiens, ASPC1; AsPc-1 (pancreatic) K ras mutation; read-out: IC50, inhibition of human tumor cell growth, soft agar
Protocol: as §1

[10] = tested on: DU 145; assay: Soft agar assay; type: cell-based; conditions: Homo sapiens; DU 145 (prostate) ras mut. not detected; read-out: IC50, inhibition of human tumor cell growth, soft agar
Protocol: as §1

[11] = tested on: HPAF II; assay: Soft agar assay; type: cell-based; conditions: Homo sapiens; HPAF II (pancreatic) K ras mutation; read-out: IC50, inhibition of human tumor cell growth, soft agar
Protocol: as §1

[12] = tested on: K ras NIH 3T3; assay: Soft agar assay; type: cell-based; conditions: Mus musculus, NIH3T3, read-out: IC50, inhibition of human tumor cell growth, soft agar

For `NC(=O)N1CCC(CC(=O)N2CCC([C@H]3c4ncc(Br)cc4CCc4cc(Cl)cc(Br)c43)CC2)CC1` [Example 10], the inhibition in vivo at 10 mg/kg [1] was 49%, the inhibition in vivo at 50 mg/kg [1] was 77% and the IC50 [2] was 1000 nM. It also gave an IC50 [3] of 50 nM, an IC50 [4] of under 600 nM and an IC50 [5] of 1250 nM. For the same molecule, the IC50 [6] was 600 nM, the IC50 [7] was 300 nM and the IC50 [8] was under 600 nM. The IC50 [9] was 3000 nM, the IC50 [10] was 600 nM and the IC50 [11] was under 500 nM. For the same molecule, the IC50 [12] was 400 nM.
